The values that follow come from patent US20090221539A1, “METHOD OF DETECTING AND REDUCING BOAR TAINT USING NUCLEAR RECEPTORS” (UNIVERSITY OF GUELPH, priority 2005, published 2009).

One series concerns CYP2A6. Kind of series: CYP2A6 activity (coumarin 7-hydroxylase, COH assay) in primary pig hepatocytes after inducer treatment. The following applies: for CYP2A6 activity: isoproterenol 500 μM, CITCO 1.0 μM. The protocol:
(§1) Each data point represents results obtained from 3 separate experiments run in triplicate.
(§2) Hepatocytes were prepared by a modification of a collagenase perfusion method described previously (Sinclair et al., 2005). Briefly, one hepatic lobe was immediately catheterized by selecting the largest vessel at the cut end. Blood was then flushed from the liver by perfusion with 25 mL/min of medium containing 10 mM hydroxyethyl piperazine ethane (HEPES), 1 mM EGTA and HBSS (pH 7.4) delivered at 37° C. The lobe was then perfused for 5 minutes with the same medium without EGTA and then with William's E Media (pH 7.4) containing 10 mM HEPES and 0.7 mg/mL collagenase type 1 for 10 to 25 minutes until the hepatocytes appeared to be fully dissociated.
(§3) All remaining experimental procedures were carried out under sterile conditions. The lobe was gently minced with a scalpel to disassociate cells in attachment medium containing 10 mM HEPES, 10% (v/v) fetal bovine serum, 1% (v/v) penicillin-streptomycin and 50 Units/L insulin in William's E media (pH 7.4), at 4° C. Cells were filtered through gauze and centrifuged at 15×g for 3 minutes. The cell pellet was washed in attachment media and cell viability was determined by trypan blue exclusion. […] Hepatocytes were then plated on Primaria™ 60 mm tissue culture dishes (VWR International Ltd., Mississauga, ON) at a density of 2.25×10^6 cells in 3.0 mL attachment media, and kept in a incubator at 37° C. supplied with 95% air and 5% CO2. After 4 hours to allow for attachment of the cells, the medium was replaced with serum-free medium that contained 10 mM HEPES, 10 mM pyruvate, 0.35 mM proline, 1% (v/v) penicillin-streptomycin and 50 Units/L insulin in William's E media (pH 7.4) with treatments. For inducer experiments, hepatocytes were treated for 19 hours prior to the determination of P450 activities and 3MI metabolism.
(§4) To determine the rate of p-nitrophenol (PNP) hydroxylase activity and coumarin 7-hydroxylase (COH) activity, hepatocytes were incubated with 500 μM PNP or 100 μM coumarin according to the procedures previously described (Terner et al, in press). Assays were validated to be linear with time and proportional to number of cells. Production of metabolites was determined in duplicate by interpolation of standard curves made from authentic standards p-nitrocatechol and 7-hydroxycoumarin.

A further series deals with 3MI metabolism. Kind of series: 3MI metabolism assay: production of HMOI and 3MOI in primary pig hepatocytes after inducer treatment. It counts as cell-based. The note with it: for 3MI metabolism: CITCO 1.0 μM. How it is done: as §1, §2, §3
To measure 3MI metabolism in primary cultured hepatocytes, cells were incubated with 500 μM 3MI for 6 hours, after which an equal volume of acetonitrile was added to stop the reaction. The production of metabolites was then determined by HPLC analysis as previously described (Terner et al., in press). Formation of metabolites was determined by interpolation of standard curves made from authentic standards HMOI and 3MOI run in duplicate.

Another series concerns CYP2E1. Kind of series: CYP2E1 activity (PNP hydroxylase assay) in primary pig hepatocytes after inducer treatment. The note with it: isoproterenol 500 μM, hormones and rifampicin 10 μM, CITCO 1.0 μM. How it is done: as §1, §2, §3, §4
Series [1] relates to SULT2A1. Kind of series: SULT2A1 activity in primary porcine Leydig cells after treatment with nuclear receptor ligands ([3H]DHEA to DHEAS conversion). The format is cell-based, pig. The following applies: primary Leydig cells of mature Yorkshire boars, 24 hours; CITCO 1 μM, TCPOBOP 250 nM, phenobarbital 2 mM, phenytoin 50 μM, rifampicin 10 μM, PCN 10 μM, dexamethasone 0.1 μM, lithocolic acid 100 μM; vs control. The protocol:
FIG. 1: Effect of nuclear receptor ligands on SULT2A1 activity in porcine Leydig cells. Primary porcine Leydig cells were isolated from mature Yorkshire boars and the SULT2A1 activity was determined. Leydig cells were cultured in the presence of; CITCO (1 μM), TCPOBOP (250 nM), Phenobarbital (2 mM), Phenytoin (50 μM), Rifampicin (10 μM), PCN (10 μM), Dexamethasone (0.1 μM), Cholic Acid (100 μM), and Lithocolic Acid (100 μM) for 24 hours. Treatments are grouped according to the nuclear receptor affected: constitutive androstane receptor (CAR), pregnane X receptor (PXR), glucocorticoid receptor (GR) and farnesoid X receptor (FXR). Values are presented as means±SE of 3 independent experiments with significant differences indicated (*P<0.05).
Mature Yorkshire boars of 175±6 days obtained from the Arkell Swine Research Station at the University of Guelph, Guelph, ON were used for the isolation of Leydig cells. After slaughter, the testes were immediately removed and transported to the laboratory within five minutes. Testicular tissue was sliced into pieces of 1 cm^2×2-3 mm thickness and 100 g of tissue was incubated for 20 minutes in a shaking water bath at 37° C. with 1 mg/ml collagenase (type 1A), 50 μg/ml DNase and 50 μg/ml trypsin inhibitor in 250 ml of TC 199 Media containing 1 g/L bovine serum albumin and 0.1 g/L L-glutamine. Preparations of purified Leydig cells were obtained by layering the collagenase—dispersed testicular cells onto discontinuous Percoll gradients supplemented with HBSS. The preparations were then centrifuged at 1500×g for 15 minutes at 4° C. and the cells present at the 40-60% interface were collected as outlined previously (Raeside & Renaud 1983). Cell viability was determined by trypan blue exclusion. The typical viability of Leydig cells after this procedure was greater than 90%.
To further understand the molecular mechanisms that control SULT2A1 gene transcription, various nuclear receptor ligands were evaluated for their ability to induce SULT2A1 activity in Leydig cells. Aliquots of re-suspended Leydig cells (1×10^6 cells/ml) in TC 199 Media mixture were plated in 24 well plates. The Leydig cells were then treated with various nuclear receptor ligands as outlined in the figure legends in less than 0.5% DMSO vehicle and incubated at 37° C. in 95% air and 5% CO2 for 24 hours.
After the 24 h incubation period, the media was aspirated and approximately 10,000 cpm of [^3H] […] The cells were incubated for 4 h and the media was removed and immediately extracted by Sep-Pak C18 solid-phase chromatography, as described above. Sulfotransferase activity was assayed by measuring the conversion of [^3H] […] DHEAS (conjugate) fractions by liquid scintillation counting. […]

The subject of series [2] is pgCAR. Kind of series: Dual luciferase reporter assay in HepG2 cells transiently transfected with pgCAR. It counts as cell-based, pig. The note with it: for reporter gene expression (fold-change relative to DMSO vehicle): pgCAR, CYP2B6 response element firefly luciferase, hormones at 10 μM. In general terms: In a reporter assay the amount or activity of a reporter protein is the signal.
Experimental: Dual Luciferase Reporter Assay: Pig, human ? mouse ? receptors were tested in a transient transfection assay against a panel of hormones and xenobiotics. Hormones and TCPOBOP were tested at 10 μM with the exception of CITCO at 1 μM. The effects of ligands are expressed as fold-change relative to vehicle (dimethylsulfoxide 1:2000) control for each receptor.
The dual luciferase reporter assay (Promega) was used as a screening tool to identify ligands (hormone and xenobiotic compounds) that regulate the nuclear receptor CAR. The dual luciferase assay consists of 3 plasmids. A pgCAR or hCAR or mCAR expression plasmid containing the full length wild type isoform is used together with a reporter construct, consisting of the CAR response gene promoter element from CYP2B6 regulating the expression of the firefly luciferase gene. […] The Promega Dual-Luciferase Reporter Assay System (Cat#E11960) was used to determine the hormones and xenobiotics that modulate the CAR responsive genes by measuring the amount light produced by the firefly luciferase gene construct.
The dual luciferase assay method uses HepG2 cells (that express RXR) plated at 50% confluence onto 96 well cell culture plates. The cells are transiently transfected after 1 day with pgCAR expression plasmid, reporter plasmid (containing the CAR response element) and the internal control plasmid, which are pooled treatments to ensure all samples receive the same amount of plasmids. On day two, control or ligand supplemented media are added to cells (ligands from FIG. 4 at 10 ug/ml in DMSO) for a total of n=15 for each ligand. On day four, the media is removed and cells are washed with PBS to remove detached cells and remaining media. The cell monolayer is then treated with Passive lysis buffer and the cell lysate is then transferred to a test tube for analysis. Luminometer readings are made on a Berthold Detection systems Sirius single tube luminometer with dual injectors. The test tube is loaded into the measurement chamber and the LARII luciferase reagent is injected into the cell lysate and a 10 second firefly luciferase relative light unit (RLU) measurement is recorded. The Stop & Glo reagent is then injected into the same tube and the Renella luciferase RLU is measured. The ratio of reporter to control luminescence is used to normalize transfection efficiencies between plates; the normalized values are then statistically analyzed by t-tests to determine how efficiently CAR activates the firefly luciferase reporter gene in response to ligand treatment.

The subject of series [3] is pgCAR. Kind of series: Dual luciferase reporter assay in primary boar hepatocytes transfected with pgCAR. It counts as cell-based, pig. The following applies: primary boar hepatocytes with exogenous pgCAR expression plasmid. The protocol: FIG. 11. Dose response analysis of CITCO ligand treatment in primary boar hepatocytes. Unlike HepG2 cells, primary hepatocytes have very low basal luciferase expression allowing for the detection of significant fold changes above no hormone control at lower doses.
FIG. 12. Dose response analysis of Phenytoin ligand treatment in primary boar hepatocytes.
FIG. 13. Dual luciferase assay of selected ligand in boar hepatocytes. Selected activators and repressors of pgCAR in HepG2 cells were tested in boar hepatocytes. […] Only reporter gene activations and not repressions are detectable in this cell model.
Transfection experiments using the HepG2 cell line identified compounds that were able to alter pgCAR gene regulation. Experiments performed on primary mouse and human hepatocytes indicate that gene regulation has additional levels of complexity, and CAR is not constitutively active in vivo. This experiment uses a similar methodology as objective 2 except primary boar hepatocytes were used as the cell line. Hepatocytes were transfected with a reporter construct containing the CAR responsive element, an internal control Renilla luciferase construct, and pgCAR or an empty vector as control. Control experiments without pgCAR were conducted to determine if endogenous pgCAR in the hepatocytes could activate the reporter construct. […] The cascade of events leading to gene activation remains unclear.

The subject of a further series is UGT2B. The following applies: boar hepatocytes, ligand 8 or 10 hours, vs DMSO.
For series [4], the system named is SULT2A1. The note with it: boar hepatocytes, ligand 8 or 10 hours, vs DMSO.
Text: (§5) Boar hepatocytes treated with ligands for 8-10 hrs prior to RNA isolation and real time PCR analysis. B-actin was used as the housekeeping gene and DMSO (no hormone treatment) was used as the calibrator. For CYP2A6, CYP2E1, SULT1A1 and UGT2B the primer inefficiencies should not affect the resultant fold changes in this experiment since all hepatocyte treatments come from a single boar and analysis is compared to the no hormone DMSO control. This analysis should be valid since the calibrator is from the same pool of cells.
(§6) Primary boar hepatocytes were treated with seven different CAR ligands identified in objective 2 and 5, with DMSO used as the vehicle control. Primary cells were plated on 60 mm dishes and treated with ligand. The treatments were incubated for 8 or 10 hours and the RNA was extracted from cells in each treatment. Real Time PCR primers were designed for seven genes of interest CYP2A6, CYP2E1, 3β-HSD, 3α-HSD, SULT2A1, SULT1A1, UGT2B, CYP2B6 and pgCAR, with B-actin used as the housekeeping gene for ΔΔCT analysis.
In a further series the test system is 3β-HSD. The note with it: boar hepatocytes, ligand 8 or 10 hours, vs DMSO.
[5] abbreviates: 3-week old male pig hepatocytes, isoproterenol 500 μM, hormones and rifampicin 10 μM, given as increase, FIG. 2 values as percent of control.
The mark [6] stands for this setting: 3-week old male pig hepatocytes, given as increase, FIG. 2 values as percent of control.
[7] abbreviates: 3-week old male pig hepatocytes, hormones 10 μM, given as increase, FIG. 2 values as percent of control.
Setting [8] is: adult male hepatocytes, hormones and rifampicin 10 μM.
The mark [9] stands for this setting: adult male hepatocytes, isoproterenol 500 μM, estrone 10 μM, given as increase, FIG. 2 values as percent of control.

Read-outs that look alike come from different tables or passages of the source.

Text for 3β-HSD: as §5, §6
Text for UGT2B: as §5, §6

Turning to `CO[C@H]1/C=C/O[C@@]2(C)Oc3c(C)c(O)c4c(O)c(c(/C=N/N5CCN(C)CC5)c(O)c4c3C2=O)NC(=O)/C(C)=C\C=C\[C@H](C)[C@H](O)[C@@H](C)[C@@H](O)[C@@H](C)[C@H](OC(C)=O)[C@@H]1C` [Rifampicin], in the series with CYP2A6 (male, pig, hepatocytes, 19 h, 10 μM, pH 7.4), the “decrease in CYP2A6 activity” value is listed as 43±7%. Besides, in the series with 3MI metabolism (setting [5]), the “production of 3MOI” value was 128±10% and the “production of the 3MI metabolite HMOI” value is given as 151±14%.

For `C[C@]12CC[C@H]3[C@@H](CCC4=CC(=O)CC[C@@]43C)[C@@H]1CC[C@@H]2O` [testosterone], the CYP2E1 activity result with CYP2E1 (setting [6]) and with CYP2E1 (adult male hepatocytes) was “did not alter” each time. Besides, the CYP2A6 activity result in the series on CYP2A6 (setting [7]) and in the series with CYP2A6 (setting [8]) was “did not alter” in each case. In the series on 3MI metabolism, the “production of 3MOI” value is reported as “did not affect”. In the series on 3MI metabolism, the “production of the 3MI metabolite HMOI” value is listed as “did not affect”.

For `C[C@]12CC[C@@H](O)C[C@@H]1CC[C@@H]1[C@@H]2CC[C@]2(C)C=CC[C@@H]12` [androstenol], in the series with 3MI metabolism (setting [5]), the “production of 3MOI” value is on record as “did not affect” and the “production of the 3MI metabolite HMOI” value was “did not affect”.

With `C[C@]12CC[C@@H]3c4ccc(O)cc4CC[C@H]3[C@@H]1CCC2=O` [estrone], the HMOI production in the series on 3MI metabolism (setting [9]) is 142±12%.

As for `CC(C)NCC(O)c1ccc(O)c(O)c1` (stereo not shown) [isoproterenol], in the series with 3MI metabolism (setting [5]), the “production of 3MOI” value is recorded as “unaffected” and the “production of the 3MI metabolite HMOI” value is 150±13%. The 3MOI production entry in the series with 3MI metabolism (adult male hepatocytes, isoproterenol 500 μM, estrone 10 μM) is reported as “did not alter”. The molecule also gave an HMOI production with 3MI metabolism (setting [9]) of 139±12%.

In the case of `Clc1ccc(-c2nc3sccn3c2C=NOCc2ccc(Cl)c(Cl)c2)cc1` [CITCO, 6-(4-chlorophenyl)imidazo[2,1-b][1,3]thiazole-5-carbaldehyde O-(3,4-dichlorobenzyl)oxime], in the series with SULT2A1 [1], the SULT2A1 activity result is “did not affect”. For the same molecule, the 3MI metabolism result was “did not increase CYP2E1 or CYP2A6 activity, or affect 3MI metabolism” in the series on 3MI metabolism (3-week old male hepatocytes) and “did not increase CYP2E1 or CYP2A6 activity, or affect 3MI metabolism” with 3MI metabolism (adult male hepatocytes, rifampicin 10 μM). Moreover, the “dose at which CITCO significantly activates the pgCAR receptor” value in the series on pgCAR [2] (dose response 0.01-10.0) is no less than 0.5 µM. The “reporter gene expression (fold-change relative to DMSO vehicle)” value with pgCAR [2] is listed as “significant activation”. In addition, the “activation of the luciferase reporter construct” value in the series with pgCAR [3] was “activated the reporter construct”.

With `CC(=O)[C@H]1[C@H](C#N)C[C@H]2[C@@H]3CC=C4C[C@@H](O)CC[C@]4(C)[C@H]3CC[C@@]21C` [PCN, Pregnenolone 16α-carbonitrile], the SULT2A1 activity result with SULT2A1 [1] was “only rifampicin resulted in a significant increase”.

For the molecule `C[C@@]12CCC[C@H]1[C@@H]1CC[C@H]3C[C@@H](O)CC[C@]3(C)[C@H]1CC2` [androstanol], the CYP2E1 activity result with CYP2E1 (setting [6]) and in the series on CYP2E1 (adult male hepatocytes) was “did not alter” each time. The CYP2A6 activity result in the series on CYP2A6 (setting [7]) and with CYP2A6 (setting [8]) was “did not alter” each time. Moreover, the “production of 3MOI” value in the series with 3MI metabolism (setting [5]) is given as “did not affect”. The “production of the 3MI metabolite HMOI” value in the series with 3MI metabolism (setting [5]) is reported as “did not affect”.

Consider `C[C@]12CC[C@H](O)C[C@@H]1CC[C@@H]1[C@@H]2CC[C@]2(C)C=CC[C@@H]12` [5α-androsten-3β-ol], for which the “reporter gene expression (fold-change relative to DMSO vehicle)” value in the series with pgCAR [2] is listed as “significant repressions”.

With `C[C@]12CCC(=O)C[C@@H]1CC[C@@H]1[C@@H]2CC[C@]2(C)[C@@H](O)CC[C@@H]12` [5α-DHT, 5α dihydrotestosterone], the UGT2B gene expression entry in the series with UGT2B was “significantly activated”. In the series with SULT2A1 [4], the SULT2A1 gene expression entry is on record as “significantly activated”. Further, in the series with 3β-HSD, the 3β-HSD gene expression entry was “significantly activated”.

In the case of `Clc1cnc(Oc2ccc(Oc3ncc(Cl)cc3Cl)cc2)c(Cl)c1` [TCBOPOP, 1,4-bis-[2-(3,5-dichloropyridyl-oxy)]benzene; 3,3′5,5′-tetrachloro-1,4-bis(pyridyl-oxy)benzene], in the series on SULT2A1 [1], the SULT2A1 activity result was “did not affect”.

For `C[C@@]12C=CC[C@H]1[C@@H]1CC=C3C[C@@H](O)CC[C@]3(C)[C@H]1CC2` [5,16-androstadien-3β-ol], the “reporter gene expression (fold-change relative to DMSO vehicle)” value with pgCAR [2] is “significant repressions”.

On to `O=C1NC(=O)C(c2ccccc2)(c2ccccc2)N1` [phenytoin], for which the SULT2A1 activity entry with SULT2A1 [1] is “significant increase”. Moreover, in the series with pgCAR [3], the “activation of the luciferase reporter construct” value is on record as “activated the reporter construct”.
